# In article PMC7755165 (Xenobiotica; the fate of foreign compounds in biological …, 2019):
# Where two headings read alike, the source gives them in different places.
# Experiments:
# recombinant CYP3A4 [1] = target: T1, recombinant CYP3A4 (Homo sapiens, UniProt P08684); conditions: cited from earlier work
# in vitro [2] = conditions: human, pooled human liver microsomes
# recombinant CYP2C19 = recombinant CYP2C19 (Homo sapiens, UniProt P33261); conditions: ref Ramírez et al., (2004); cited from earlier work
# CYP2B6 [3] = target: T2, CYP2B6 (Homo sapiens, UniProt P20813); assay: in vitro; conditions: recombinant CYP2B6, pH 7.4
# T2 sequence (P20813 1-491): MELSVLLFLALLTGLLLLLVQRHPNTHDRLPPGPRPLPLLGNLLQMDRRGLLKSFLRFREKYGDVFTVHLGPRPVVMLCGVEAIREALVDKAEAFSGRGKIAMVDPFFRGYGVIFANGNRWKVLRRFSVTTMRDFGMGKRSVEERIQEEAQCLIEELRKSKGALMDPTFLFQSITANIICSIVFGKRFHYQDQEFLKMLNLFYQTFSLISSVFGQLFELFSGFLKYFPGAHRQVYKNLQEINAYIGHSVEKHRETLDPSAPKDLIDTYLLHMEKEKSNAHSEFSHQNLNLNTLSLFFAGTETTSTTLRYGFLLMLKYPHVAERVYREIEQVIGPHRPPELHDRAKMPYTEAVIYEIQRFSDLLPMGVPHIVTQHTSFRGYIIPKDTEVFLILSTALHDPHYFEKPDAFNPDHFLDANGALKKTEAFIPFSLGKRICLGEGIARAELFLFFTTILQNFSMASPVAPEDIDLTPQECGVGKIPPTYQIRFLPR
# [4] = cited from earlier work; for half-life: ref Clark et al., 1995
# CYP2B6 [5] = target: T2, CYP2B6; conditions: ref Ramírez et al., (2004); cited from earlier work
# in vitro [6] = conditions: human, pooled human liver microsomes, pH 7.4
# recombinant CYP3A4 [7] = target: T1, recombinant CYP3A4; assay: Kinetic assay for meperidine N-demethylation by recombinant P450
# [8] = test system: single-donor human liver microsomes; conditions: donor (CYP2C19*1/*1); (+)-N-3-benzylnirvanol 5 μM; meperidine 10 μM, 10 min
# T1 sequence (P08684 2-503 limits assumed): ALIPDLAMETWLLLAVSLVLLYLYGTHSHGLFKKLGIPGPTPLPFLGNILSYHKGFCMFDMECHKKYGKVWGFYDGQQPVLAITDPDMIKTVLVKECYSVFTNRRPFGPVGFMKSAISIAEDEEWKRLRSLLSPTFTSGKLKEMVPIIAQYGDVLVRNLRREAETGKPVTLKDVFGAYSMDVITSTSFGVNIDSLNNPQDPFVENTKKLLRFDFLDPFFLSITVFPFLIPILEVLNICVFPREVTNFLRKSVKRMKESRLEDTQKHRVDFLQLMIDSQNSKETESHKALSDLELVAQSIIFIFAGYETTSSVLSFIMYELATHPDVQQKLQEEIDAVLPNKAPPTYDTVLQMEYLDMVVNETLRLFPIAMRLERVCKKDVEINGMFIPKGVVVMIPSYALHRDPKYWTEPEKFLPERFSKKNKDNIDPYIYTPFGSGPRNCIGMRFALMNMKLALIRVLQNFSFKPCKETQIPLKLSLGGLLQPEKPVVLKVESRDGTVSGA
# recombinant CYP2C19, sequence (P33261 whole entry): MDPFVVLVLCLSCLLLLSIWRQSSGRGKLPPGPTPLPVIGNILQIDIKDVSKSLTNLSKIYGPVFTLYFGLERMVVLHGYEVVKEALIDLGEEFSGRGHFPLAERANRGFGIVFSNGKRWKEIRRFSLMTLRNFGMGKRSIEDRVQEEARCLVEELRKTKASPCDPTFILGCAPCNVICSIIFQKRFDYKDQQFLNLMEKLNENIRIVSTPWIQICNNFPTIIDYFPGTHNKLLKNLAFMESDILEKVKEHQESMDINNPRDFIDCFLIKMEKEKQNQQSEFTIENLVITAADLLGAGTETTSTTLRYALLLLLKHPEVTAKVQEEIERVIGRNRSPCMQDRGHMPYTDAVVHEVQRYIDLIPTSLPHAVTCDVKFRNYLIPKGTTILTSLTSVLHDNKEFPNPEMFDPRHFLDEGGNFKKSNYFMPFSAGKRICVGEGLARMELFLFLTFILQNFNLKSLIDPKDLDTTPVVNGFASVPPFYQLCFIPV
compound,measurement,setting,value
"CCOC(=O)C1(c2ccccc2)CCN(C)CC1 [meperidine, Meperidine]",relative P450 contribution for normeperidine formation,"recombinant CYP3A4 [1]; CYP3A4, ref Ramírez et al., (2004)",28%
same,catalytic efficiency for meperidine N-demethylation,"recombinant CYP3A4 [1]; recombinant CYP3A4, ref Ramirez et al. (2004)",0.07 min⁻¹ µM⁻¹
same,Km,in vitro [2],1600 µM
same,relative P450 contribution for normeperidine formation,recombinant CYP2C19,15%
same,Km at 10 min,CYP2B6 [3],262 ± 59 µM
same,half-life,[4]; patients with normal liver function,2.5 to 4 h
same,parent compound excreted in urine,"[4]; ref Burns et al., 1955, Yeh et al., 1981",5%
same,relative P450 contribution for normeperidine formation,CYP2B6 [5],57%
same,Km at 10 min,in vitro [6],622 ± 63 µM
same,Percent Contribution to meperidine N-demethylation,recombinant CYP3A4 [7]; Approach 1 (Rowland-Yeo et al. 2004 abundances),16%
same,Percent Contribution to meperidine N-demethylation,recombinant CYP3A4 [7]; Approach 2 (Achour et al. 2014 abundances),9%
same,Percent Contribution to meperidine N-demethylation,recombinant CYP3A4 [7]; Approach 3 (Rodrigues 1999 abundances),5%
same,"estimated percent P450 contribution (fm, P450) for meperidine N-demethylation",recombinant CYP3A4 [7]; range over three sets of reported P450 abundances,5–16%
"CCC1(c2ccccc2)NC(=O)N(Cc2ccccc2)C1=O (single isomer, unassigned; (+)) [benzylnirvanol, (+)-N-3-benzylnirvanol]",reduction of normeperidine formation compared to vehicle control,[8],< 20%
CCOC(=O)C1(c2ccccc2)CCNCC1 [normeperidine],half-life,[4]; at therapeutic doses,14 to 21 h
same,half-life,[4]; patients with renal insufficiency,exceed 34 hours
